Measurements from PMC9608462 (Molecules, 2022).
Read-outs that look alike come from different tables or passages of the source.

Columns and labels:
[1] = tested on: MCF-7 cells; experiment: MCF-7 cells proliferation (Hoechst 33258 DNA fluorescence); assay type: cell-based, human; details: for DNA level / DNA synthesis of MCF-7 cells: 10^3–10^4 nM
Protocol: The estrogen-stimulated proliferation of MCF-7 cells was performed using Hoechst 33258 DNA staining. […] After 24 h, cells were washed with PBS and kept in the same media for the next 48 h. Then, cells were incubated with tested compounds at concentrations ranging from 10^1 to 10^4 nM for 96 h. E2 at 1 nM and 10 nM was used as a positive control. […] Proliferation was assessed by the fluorometric measurement of DNA. For this purpose, cells were washed with PBS, lysed using EDTA (0.5 mL, […], pH 12.3) at 37 °C for 30 min and neutralized with 10 mM KH2PO4, and then, Hoechst 33258 (1 mg/mL) was added. Excitation at 350 nm and emission at 455 nm was used for fluorescence measurement using Tecan Infinite M Plex microplate reader (Männedorf, Switzerland).

[2] = tested on: Ishikawa cells; experiment: Ishikawa cells proliferation (alkaline phosphatase activity); assay type: cell-based, human; details: for alkaline phosphatase activity of Ishikawa cells: 10^3–10^4 nM; for alkaline phosphatase activity of Ishikawa cells / alkaline phosphatase activity / proliferation of Ishikawa cells: 72 h; for alkaline phosphatase activity / proliferation of Ishikawa cells: 10–100 nM
Protocol: The estrogen-stimulated proliferation of Ishikawa cells was performed according to Wober and coworkers with some modifications: Ishikawa cells were seeded at a density of 5 × 10^3 cells/well in 96-well plates in phenol red-free DMEM/F12 containing 10% charcoal dextran-treated FBS. After 72 h, cells were washed with PBS and kept in the same media for the next 24 h. Then, the medium was changed, and cells were incubated with the tested compounds at concentrations ranging from 10^1 to 10^4 nM for 72 h. As a positive control, E2 at a concentration of 1 nM was used. […] The treated cells were grown for 72 h. The estrogenic stimulation was evaluated by alkaline phosphatase activity. After incubation, the cells were washed with PBS, and the plates were frozen at −20 °C until analysis. After thawing, the plates were warmed in a water bath up to 22 °C and incubated with the p-Nitrophenyl Phosphate Liquid Substrate System (Sigma-Aldrich). This ready-to-use, single-solution reagent contains p-nitrophenyl phosphate, buffer and the necessary magnesium cations. Alkaline phosphatase releases p-nitrophenol, measured kinetically at 405 nm using plate reader Biotek Instruments, Elx-800, Winooski, VT, USA).

[3] = biological target: T1, human ERβ (Homo sapiens, UniProt Q92731); experiment: Fluorescence polarization ER/D22 coactivator-peptide assay, ERβ; assay type: biochemical; details: for agonistic/antagonistic activity for ERβ: fluorescence polarisation, recombinant receptor; for EC50: recombinant human ERβ, D22 peptide, 1 h
T1 construct: purchased Panvera (Göttingen, Germany)
Protocol: (§1) Binding affinities to ERα and ERβ were determined by the dose dependence binding of the test compounds with purified human Erα and Erβ. All chemicals were obtained from Panvera (Göttingen, Germany). The assay was performed according to the protocols recommended by the manufacturer. […] D22 is a coactivator-like peptide containing an LXXLL motif and flanking sequences that resemble known coactivators. Agonist-bound ER (ERα or ERβ) can recruit D22, resulting in a more significant fraction of bound D22 and a larger polarization value. Antagonist-bound ER has a lower affinity for D22, yielding a more significant fraction of unbound D22 and a lower polarization value. Recombinant human ERα or ERβ were incubated with the tested compounds for one hour. Fluorescence polarization was measured using a Tecan Ultra Evolution multiwell plate reader (Tecan, Crailsheim, Germany) at excitation wavelength 540 nm and emission wavelength 580 nm. […] The EC50 values were derived by logarithmic curve-fitting from binding curves using GraphPad Prism 8.4.3. GraphPad Software, San Diego, California, USA. EC50 was determined from at least three independent experiments.

[4] = biological target: T2, human ERα (Homo sapiens, UniProt P03372); experiment: Fluorescence polarization ER/D22 coactivator-peptide assay, ERα; assay type: biochemical; details: for agonistic/antagonistic activity for ERα: fluorescence polarisation, recombinant receptor; for EC50: recombinant human ERα, D22 peptide, 1 h
T2 construct: purchased Panvera (Göttingen, Germany)
T2 sequence (P03372 1-595): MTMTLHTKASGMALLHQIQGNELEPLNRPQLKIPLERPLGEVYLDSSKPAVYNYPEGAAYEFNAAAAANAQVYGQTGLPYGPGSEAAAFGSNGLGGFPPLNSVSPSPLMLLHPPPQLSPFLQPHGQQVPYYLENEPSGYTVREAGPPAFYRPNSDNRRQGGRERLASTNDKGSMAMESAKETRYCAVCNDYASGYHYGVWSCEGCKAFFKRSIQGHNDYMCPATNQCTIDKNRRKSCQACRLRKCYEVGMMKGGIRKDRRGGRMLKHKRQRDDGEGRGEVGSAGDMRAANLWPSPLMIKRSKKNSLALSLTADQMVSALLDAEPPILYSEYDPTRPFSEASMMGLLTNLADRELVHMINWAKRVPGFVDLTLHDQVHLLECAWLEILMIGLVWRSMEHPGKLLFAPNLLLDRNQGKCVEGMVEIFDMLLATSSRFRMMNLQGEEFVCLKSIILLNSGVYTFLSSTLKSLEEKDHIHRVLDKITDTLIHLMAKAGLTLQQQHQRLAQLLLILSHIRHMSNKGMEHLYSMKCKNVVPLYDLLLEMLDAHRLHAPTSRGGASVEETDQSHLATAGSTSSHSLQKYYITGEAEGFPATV
Protocol: as §1

[5] = tested on: MCF-7 cells transfected with luciferase reporter gene; details: read-out: EC50 of luciferase expression; cited from earlier work
[6] = tested on: human endometrial adenocarcinoma cells (Ishikawa); details: E2-induced; cited from earlier work
[7] = tested on: human endometrial adenocarcinoma cells (Ishikawa); details: read-out: IC50, suppression of E2-induced expression of alkaline phosphatase; cited from earlier work
[8] = 100–1000 nM (as in conclusions)

T1 sequence (Q92731 whole entry): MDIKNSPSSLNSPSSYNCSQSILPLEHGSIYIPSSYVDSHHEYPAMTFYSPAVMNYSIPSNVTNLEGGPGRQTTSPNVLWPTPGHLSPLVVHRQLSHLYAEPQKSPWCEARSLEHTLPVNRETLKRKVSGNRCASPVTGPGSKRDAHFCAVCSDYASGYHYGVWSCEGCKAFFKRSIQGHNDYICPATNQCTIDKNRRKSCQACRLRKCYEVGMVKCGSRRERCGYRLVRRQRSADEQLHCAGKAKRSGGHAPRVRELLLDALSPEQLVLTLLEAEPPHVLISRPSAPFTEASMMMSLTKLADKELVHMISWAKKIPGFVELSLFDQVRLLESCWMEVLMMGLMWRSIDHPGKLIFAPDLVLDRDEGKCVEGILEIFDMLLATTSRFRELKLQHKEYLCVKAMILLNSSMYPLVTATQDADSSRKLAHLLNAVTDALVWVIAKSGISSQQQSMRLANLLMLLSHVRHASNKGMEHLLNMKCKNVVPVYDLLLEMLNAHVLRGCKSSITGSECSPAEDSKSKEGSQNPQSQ

SMILES | DNA level / DNA synthesis of MCF-7 cells [1] | alkaline phosphatase activity of Ishikawa cells [2] | alkaline phosphatase activity / proliferation of Ishikawa cells [2] | agonistic/antagonistic activity for ERβ [3] | EC50 ([3]; read-out: ERβ Agonist EC50) [nM] | agonistic/antagonistic activity for ERα [4] | EC50 ([4]; read-out: ERα Agonist EC50) [nM] | EC50 ([3]; read-out: ERβ antagonist EC50) [nM] | EC50 ([4]; read-out: ERα antagonist EC50) [nM] | proliferation of MCF-7 cells [1, 8] | EC50 [5] [nM] | concentration range suppressing progesterone receptor (PR) mRNA levels [6] [µM] | proliferation of Ishikawa cells [2, 8] | IC50 [7] [nM]
Oc1ccc(C=Cc2cc(O)c(O)c(O)c2)cc1 [Compound M8, 3,4,4′,5-tetrahydroxystilbene] | increased DNA synthesis | significantly lower compared with the control | stimulated the alkaline phosphatase | could act as ERβ agonists | 8.1 ± 1.6 | agonistic activity | 108 ± 10.2 | – | – | – | – | – | – | –
Oc1cc(C=Cc2cc(O)c(O)c(O)c2)cc(O)c1O [Compound M12, 3,3′,4,4′,5,5′-hexahydroxystilbene] | – | significantly lower compared with the control | stimulated the alkaline phosphatase | did not show an antagonistic effect | – | antagonistic activity | – | > 5000 | 110 ± 15.5 | – | – | – | – | –
Oc1ccc(/C=C/c2cc(O)cc(O)c2)cc1 [resveratrol] | stimulated an increase in the level of the assessed markers | stimulated an increase in the level of the assessed markers | – | – | – | agonistic activity | 21.2 ± 2.2 | – | – | stimulated the proliferation | 5000 to 10000 | 5 to 15 | stimulated the proliferation | 2300
Oc1cc(O)cc(C=Cc2cc(O)c(O)c(O)c2)c1 [Compound M11, 3,3′,4,5,5′-pentahydroxystilbene] | significantly lower compared with the control | significantly lower compared with the control | stimulated the alkaline phosphatase | – | – | antagonistic activity | – | > 5000 | 1010 ± 30.5 | – | – | – | – | –
